# Data as given in paper PMC6688371, “Effect of the inhaled PDE4 inhibitor CHF6001 on biomarkers of inflammation in COPD” (Respiratory Research, 2019).
# Read-outs that look alike come from different tables or passages of the source. Marks after values point to notes of the source that are not given here.
# How the values were obtained:
# [1] = Plasma pharmacokinetics at steady state (Day 32); assay type: in vivo, human; details: for Tmax,ss / CL/F / Cmax / AUC(0-t): plasma on Day 32; for Tmax,ss: median (range); for CL/F / Cmax / AUC(0-t): both sexes, human, inhaled or intranasal, geometric mean (%CV); for AUC(0-t): read-out: AUC0–12,ss
# Protocol: Induced sputum was collected pre-dose on Day 1 of each treatment period (for the first treatment period, the sample could be collected up to 10 days prior to Day 1), and 2 h post-dose on Days 20, 26 and 32 (see the Additional file 1 for further detail on sputum and blood analysis methods). Blood samples were taken pre-dose on Day 1, and pre-dose and at 30 min, and 1, 1.5, 2, 3, 4, 6, 8 and 12 h post-dose on Day 32. Other pre-dose assessments on Days 1 and 32 were spirometry (forced expiratory volume in 1 s [FEV1] and forced vital capacity [FVC]), forced oscillometry, and COPD Assessment Test (CAT), with Baseline Dyspnea Index recorded on Day 1 and Transition Dyspnea Index (TDI) on Day 32. Central and peripheral airways mechanics were assessed using forced oscillometry, with the following values determined: inspiratory and expiratory resistance (at 5 and 19 Hz), inspiratory and expiratory reactance, tidal expiratory flow limitation and the percentage of flow limited breaths.
# The mean changes from baseline to Day 32 for lung function, CAT and TDI were analysed using similar methodology to sputum biomarkers, but were not log-transformed. […] The sputum concentration of CHF6001 was also evaluated at 2 h post-dose, using the mean of all values measured on Days 20, 26 and 32. Pharmacokinetic variables were summarised using geometric means and coefficients of variation, except for Tmax,ss, which is presented as median (range). […]
# Validation procedures again followed those outlined for the analysis of biomarkers above. All […]
# concentrations of biomarkers in human serum or plasma from regulatory studies.
# Blood for the pharmacokinetic analysis was collected pre-dose and at 30 min, and 1, 1.5, 2, 3, 4, 6, 8 and 12 h post-dose on Day 32 of each treatment period. Samples were centrifuged at 2000 g for 15 min at 4C, with the resulting plasma shipped to the central laboratory at –60 […]
# (§1) to –90C. The plasma concentration of CHF6001 was evaluated using a LC-MS/MS method following solid phase extraction. Validation procedures again followed those outlined for the analysis of biomarkers above. The bioanalytical method wa s found to be linear over the calibration range of 10 to 20,000 pg/mL. The precision and accuracy of the method was found to be within the target limits of within 20% at the lower limit of quantification 10 pg/mL and within 15% at all other concentrations.
# (§2) The recovery of CHF6001 from human plasma was consistent across the analytical range , with no significant matrix effects. […]
# (§3) for up to 24 h at the sample processing temperature (nominally +20C), a fter storage for 184 days in a freezer (nominally –80C) and after four freeze-thaw cycles at nominally – 80C / +20C. Therefore the method was considered to be suitable for measuring concentrations of CHF6001 in human plasma samples from regulatory studies.
# (§4) The study was approved by two centralised ethics committees on behalf of the sites:
# (§5) • UK: Health Research Authority, North West, Greater Manchester South Research Ethics Committee, Manchester (approval reference 16/NW/0553).
# (§6) • Germany: Ethics Committee of Hesse Medical Association, Frankfurt am Main (approval reference FF 98/2016).
# (§7) Patients had to meet all the following inclusion criteria to be eligible for enrolment into the […]
# (§8) 1. Written informed consent obtained prior to any study-related procedures;
# (§9) 2. Male or female aged ≥40 years;
# (§10) 3. A female was eligible to enter the study if they were of non-childbearing potential, i.e. physiologically incapable of becoming pregnant (e.g. postmenopausal women defined as being amenorrhoeic for ≥12 consecutive months without an alternative medical cause. If indicated, as per Investigator’s request, post -menopausal status
# [2] = Stability of CHF6001 in human plasma (bioanalytical validation); assay type: in vitro ADME
# Protocol: as §1, with “Effect of CHF6001 on inflammatory biomarkers – Additional file 1 to –90C.” for “to –90C.”
# as §2, §3, §4, §5, §6, §7, §8, §9, §10
# patients with COPD = test: Safety and tolerability (adverse events, vital signs, ECG, laboratory data)
# From the text: The Safety population is all randomised patients who received at least one dose of study medication.
compound,measurement,setting,value
CS(=O)(=O)Nc1ccc(C(=O)O[C@@H](Cc2c(Cl)c[n+]([O-])cc2Cl)c2ccc(OC(F)F)c(OCC3CC3)c2)cc1OCC1CC1 [CHF6001],"Tmax,ss",[1]; 800 μg BID inhaled,2.00 (0.50; 4.08)^a h
same,"Tmax,ss",[1]; 1600 μg BID inhaled,2.00 (0.48; 4.05)^b h
same,Systemic exposure in relation to dose,"[1]; Day 32, 800 vs 1600 μg BID",broadly proportional to dose
same,CL/F,"[1]; 800 ug, 800 μg BID inhaled",603 mL/min
same,Cmax,"[1]; 800 ug, 800 μg BID inhaled",2.44 ng/mL
same,AUC(0-t),"[1]; 800 ug, 800 μg BID inhaled",22.1 ng·h/mL
same,CL/F,"[1]; 1600 ug, 1600 μg BID inhaled",653 mL/min
same,Cmax,"[1]; 1600 ug, 1600 μg BID inhaled",4.5 ng/mL
same,AUC(0-t),"[1]; 1600 ug, 1600 μg BID inhaled",40.8 ng·h/mL
same,Storage time found stable in human plasma,[2]; freezer (nominally –80C),184 days
same,Freeze-thaw cycles found stable in human plasma,[2]; nominally –80C / +20C,four
same,Time found stable in human plasma,[2]; sample processing temperature (nominally +20C),up to 24 h
same,Adverse events,patients with COPD; 800 μg BID (N = 58),30 (51.7) patients (%)
same,Adverse events leading to study drug withdrawal,patients with COPD; 800 μg BID (N = 58),3 (5.2) patients (%)
same,Adverse events with a fatal outcome,patients with COPD; 800 μg BID (N = 58),0 patients (%)
same,Back pain,patients with COPD; 800 μg BID (N = 58),4 (6.9) patients (%)
same,Cough,patients with COPD; 800 μg BID (N = 58),1 (1.7) patients (%)
same,Diarrhoea,patients with COPD; 800 μg BID (N = 58),3 (5.2) patients (%)
same,Drug-related adverse events,patients with COPD; 800 μg BID (N = 58),1 (1.7) patients (%)
same,Drug-related adverse events: Dry mouth,patients with COPD; 800 μg BID (N = 58),0 patients (%)
same,Drug-related adverse events: Sleep disorders,patients with COPD; 800 μg BID (N = 58),1 (1.7) patients (%)
same,Drug-related serious adverse events,patients with COPD; 800 μg BID (N = 58),0 patients (%)
same,Fatigue,patients with COPD; 800 μg BID (N = 58),1 (1.7) patients (%)
same,Headache,patients with COPD; 800 μg BID (N = 58),1 (1.7) patients (%)
same,Nasopharyngitis,patients with COPD; 800 μg BID (N = 58),5 (8.6) patients (%)
same,Oropharyngeal pain,patients with COPD; 800 μg BID (N = 58),3 (5.2) patients (%)
same,Serious adverse events,patients with COPD; 800 μg BID (N = 58),2 (3.4) patients (%)
same,Severe adverse events,patients with COPD; 800 μg BID (N = 58),0 patients (%)
same,Tension headache,patients with COPD; 800 μg BID (N = 58),1 (1.7) patients (%)
same,Toothache,patients with COPD; 800 μg BID (N = 58),3 (5.2) patients (%)
same,Patients reporting gastrointestinal adverse events,"patients with COPD; 800 μg BID, seven patients",12.1%
same,Adverse events,patients with COPD; 1600 μg BID (N = 59),33 (55.9) patients (%)
same,Adverse events leading to study drug withdrawal,patients with COPD; 1600 μg BID (N = 59),2 (3.4) patients (%)
same,Adverse events with a fatal outcome,patients with COPD; 1600 μg BID (N = 59),0 patients (%)
same,Back pain,patients with COPD; 1600 μg BID (N = 59),1 (1.7) patients (%)
same,Cough,patients with COPD; 1600 μg BID (N = 59),3 (5.1) patients (%)
same,Diarrhoea,patients with COPD; 1600 μg BID (N = 59),1 (1.7) patients (%)
same,Drug-related adverse events,patients with COPD; 1600 μg BID (N = 59),1 (1.7) patients (%)
same,Drug-related adverse events: Dry mouth,patients with COPD; 1600 μg BID (N = 59),1 (1.7) patients (%)
same,Drug-related adverse events: Sleep disorders,patients with COPD; 1600 μg BID (N = 59),0 patients (%)
same,Drug-related serious adverse events,patients with COPD; 1600 μg BID (N = 59),0 patients (%)
same,Fatigue,patients with COPD; 1600 μg BID (N = 59),3 (5.1) patients (%)
same,Headache,patients with COPD; 1600 μg BID (N = 59),7 (11.9) patients (%)
same,Nasopharyngitis,patients with COPD; 1600 μg BID (N = 59),6 (10.2) patients (%)
same,Oropharyngeal pain,patients with COPD; 1600 μg BID (N = 59),2 (3.4) patients (%)
same,Serious adverse events,patients with COPD; 1600 μg BID (N = 59),2 (3.4) patients (%)
same,Severe adverse events,patients with COPD; 1600 μg BID (N = 59),1 (1.7) patients (%)
same,Tension headache,patients with COPD; 1600 μg BID (N = 59),3 (5.1) patients (%)
same,Toothache,patients with COPD; 1600 μg BID (N = 59),1 (1.7) patients (%)
same,Patients reporting gastrointestinal adverse events,"patients with COPD; 1600 μg BID, six patients",10.2%
same,"Haematology or biochemistry data, between treatments",patients with COPD; 800 or 1600 μg BID and placebo,no major differences
same,"Systolic or diastolic blood pressure, heart rate or Fridericia's corrected QT interval vs placebo",patients with COPD; either dose (800 or 1600 μg BID),no differences
